Source: PubChem BioAssay AID1845209 (Molecular Pharmacology Branch, DTP, NCI, 2023)

Test system: NCI-H211 tumor spheroids, viability percent test/control
Experiment: Anticancer human tumor NCI-H211 cell line growth inhibition;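 note: spheroids exposed to agents for seven days before readout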
Details: spheroids with HUVEC and MSC; for IC50: curve of first compound; for viability, T/C: stronger effect = lower value
Source text: Multicellular complex tumor spheroid response to DNA repair inhibitors in combination with DNA-damaging drugs
This study explores the anticancer activities of DNA-damaging drugs and inhibitors of DNA damage repair, both as single agents and in combinations. Complex tumor spheroids comprised of malignant cells, endothelial cells and mesenchymal stem cells served as an in vitro model for human solid tumors. This model system incorporates physiologically relevant features and patient-derived or established malignant cell lines with clinically relevant genetic alterations from many tumor types. Twenty-six patient-derived or established malignant cell lines were evaluated representing sarcoma, melanoma, small cell lung cancer (SCLC), non-small cell lung cancer (NSCLC), as well as bladder, ovarian and pancreatic cancers. The concentration ranges selected for each drug and investigational agent were based upon clinically achievable concentrations if the clinical Cmax of the agent was known.
Compounds. The drugs and compounds olaparib (NSC753686), talazoparib (NSC767125), berzosertib (NSC777718), elimusertib (NSC800525), nedisertib (NSC802822), VX-984 (NSC792969), AZD-1390 (NSC803789), temozolomide (NSC362856), topotecan (NSC609699), trabectedin (NSC813783), staurosporine (NSC755774), and gemcitabine (NSC613327) were obtained from the National Cancer Institute (NCI) Developmental Therapeutics Program Chemical Repository. The FDA-approved anticancer drug set is available from the Developmental Therapeutics Program at https://dtp.cancer.gov/organization/dscb/obtaining/available_plates.htm. […] The stock solutions were prepared in dimethyl sulfoxide (DMSO, Sigma-Aldrich, St. Louis, MO, cat. D2650) at 400-fold the tested concentration and stored at -70 degrees C. Prior to their use, the stock solutions were diluted in fresh medium and the final DMSO concentration in the assay was 0.25% (v/v). All drugs and investigational agents were tested over a range starting from a high concentration at or near the clinical Cmax and decreasing in half-log increments. If the clinical Cmax for an agent had not been determined, the highest concentration tested was 10 microM.
Cell Lines. The patient-derived cancer cell (PDC) lines: 156681-154-R-J1-PDC, 283228-195-R-J1-PDC, 287954-098-R-J1-PDC, 292921-168-R-J2-PDC, 349418-098-R-PDC, 425362-245-T-J1-PDC, 556581-035-R-J1-PDC, and BL0293-F563-PDC were received from the NCI Patient-Derived Models Repository (PDMR, https://pdmr.cancer.gov). The established cell lines HS-SY-2 (RRID:CVCL_8719), MPNST, and SYO-1 (RRID:CVCL_7146) were obtained from the Sloan Kettering Institute. The alveolar soft parts sarcoma cell line ASPS-1 (RRID:CVCL_S738) was established at the NCI and grown from internal seed stocks. The following established cell lines were purchased from the American Type Culture Collection (ATCC, Manassas, VA): G-401 (ATCC, cat. CRL-1441, RRID:CVCL_0270), SW982 (ATCC, cat. HTB-93, RRID:CVCL_1734), VA-ES-BJ (ATCC, cat. CRL-2138, RRID:CVCL_1785), NCI-H719 (ATCC, cat. CRL-5837, RRID:CVCL_1582), NCI-H196 (ATCC, cat. CRL-5823, RRID:CVCL_1509), NCI-H841 (ATCC, cat. CRL-5845, RRID:CVCL_1595), NCI-H1618 (ATCC, cat. CRL-5879, RRID:CVCL_1480), NCI-H1876 (ATCC, cat. CRL-5902, RRID:CVCL_1503), DMS 114 (ATCC, cat. CRL-2066; RRID:CVCL_1174), NCI-H211 (ATCC, cat. CRL-5824; RRID:CVCL_1529), and SW 1271 (ATCC, cat. CRL-2177, RRID:CVCL_1716). The small cell lung cancer cell line COR-L88 was purchased from Sigma-Aldrich (cat. 92031917-1VL, RRID:CVCL_1141). The non-small cell lung cancer cell lines NCI-H226 (RRID:CVCL_1544) and NCI-H322M (RRID:CVCL_1557) were established at the NCI and grown from internal seed stocks. Pooled donor human umbilical vein endothelial cells (HUVEC, Lonza, cat. CC-2519) and human mesenchymal stem cells (hMSC, Lonza, cat. PT-2501) were purchased from Lonza (Walkersville, MD).
Cell Culture. All cells were maintained in an incubator at 37 degrees C and 5% CO2 with 95% humidity. […]

[1] = second compound 0.003 µM, first compound 0.00949 µM
[2] = second compound 0.003 µM, first compound 0.03 µM
[3] = second compound 0.003 µM, first compound 0.0949 µM
[4] = second compound 0.003 µM, first compound 0.3 µM
[5] = second compound 0.003 µM, first compound 0.949 µM
[6] = second compound 0.003 µM, first compound 3 µM
[7] = second compound 0.00949 µM, first compound 0.00949 µM
[8] = second compound 0.00949 µM, first compound 0.03 µM
[9] = second compound 0.00949 µM, first compound 0.0949 µM
[10] = second compound 0.00949 µM, first compound 0.3 µM
[11] = second compound 0.00949 µM, first compound 0.949 µM
[12] = second compound 0.00949 µM, first compound 3 µM
[13] = second compound 0.03 µM, first compound 0.00949 µM
[14] = second compound 0.03 µM, first compound 0.03 µM
[15] = second compound 0.03 µM, first compound 0.0949 µM
[16] = second compound 0.03 µM, first compound 0.3 µM
[17] = second compound 0.03 µM, first compound 0.949 µM
[18] = second compound 0.03 µM, first compound 3 µM
[19] = second compound 0.0949 µM, first compound 0.00949 µM
[20] = second compound 0.0949 µM, first compound 0.03 µM
[21] = second compound 0.0949 µM, first compound 0.0949 µM
[22] = second compound 0.0949 µM, first compound 0.3 µM
[23] = second compound 0.0949 µM, first compound 0.949 µM
[24] = second compound 0.0949 µM, first compound 3 µM
[25] = second compound 0.3 µM, first compound 0.00949 µM
[26] = second compound 0.3 µM, first compound 0.03 µM
[27] = second compound 0.3 µM, first compound 0.0949 µM
[28] = second compound 0.3 µM, first compound 0.3 µM
[29] = second compound 0.3 µM, first compound 0.949 µM
[30] = second compound 0.3 µM, first compound 3 µM

| Compound | IC50 (second compound 0.003 µM) | IC50 (second compound 0.00949 µM) | IC50 (second compound 0.03 µM) | IC50 (second compound 0.0949 µM) | IC50 (second compound 0.3 µM) | viability, T/C [3] | viability, T/C [4] | viability, T/C [5] | viability, T/C [6] | viability, T/C [9] | viability, T/C [10] | viability, T/C [11] | viability, T/C [12] | viability, T/C [15] | viability, T/C [16] | viability, T/C [17] | viability, T/C [18] | viability, T/C [21] | viability, T/C [22] | viability, T/C [23] | other results |
| --- | --- | --- | --- | --- | --- | --- | --- | --- | --- | --- | --- | --- | --- | --- | --- | --- | --- | --- | --- | --- | --- |
| CNCc1ccc(-c2cc(-c3nc(-c4ccc(S(=O)(=O)C(C)C)cc4)cnc3N)on2)cc1 + CC[C@@]1(O)C(=O)OCc2c1cc1n(c2=O)Cc2cc3c(CN(C)C)c(O)ccc3nc2-1 | 9.61 nM | < 9.49 nM | < 9.49 nM | < 9.49 nM | < 9.49 nM | 0.85% | 0.92% | 0.05% | 0.11% | 1.06% | 1.09% | 0.11% | 0.11% | 0.97% | 1.07% | 0.14% | 0.11% | 1.06% | 0.67% | 0.12% | viability, T/C [1]: 50.5%; viability, T/C [2]: 9.5%; viability, T/C [7]: 3.19%; viability, T/C [8]: 1.35%; viability, T/C [13]: 0.96%; viability, T/C [14]: 0.98%; viability, T/C [19]: 1.04%; viability, T/C [20]: 1.29%; viability, T/C [24]: 0.13%; viability, T/C [25]: 0.95%; viability, T/C [26]: 1.15%; viability, T/C [27]: 1.37%; viability, T/C [28]: 0.82%; viability, T/C [29]: 0.21%; viability, T/C [30]: 0.18% |
| Cn1ncnc1[C@H]1c2n[nH]c(=O)c3cc(F)cc(c23)N[C@@H]1c1ccc(F)cc1 + CC[C@@]1(O)C(=O)OCc2c1cc1n(c2=O)Cc2cc3c(CN(C)C)c(O)ccc3nc2-1 | < 9.49 nM | < 9.49 nM | < 9.49 nM | < 9.49 nM | < 9.49 nM | 1.05% | 1.13% | 1.18% | 1.13% | 1.24% | 1.21% | 1.11% | 1.49% | 1.25% | 1.13% | 1.14% | 1.06% | 1.17% | 1.17% | 1.1% | viability, T/C [1]: 1.01%; viability, T/C [2]: 1.19%; viability, T/C [7]: 1.17%; viability, T/C [8]: 1.18%; viability, T/C [13]: 0.91%; viability, T/C [14]: 1.11%; viability, T/C [19]: 1.14%; viability, T/C [20]: 1.25%; viability, T/C [24]: 1.34%; viability, T/C [25]: 1.06%; viability, T/C [26]: 1.01%; viability, T/C [27]: 1.1%; viability, T/C [28]: 1.37%; viability, T/C [29]: 1.05%; viability, T/C [30]: 1.06% |
| O=C(c1cc(Cc2n[nH]c(=O)c3ccccc23)ccc1F)N1CCN(C(=O)C2CC2)CC1 + CC[C@@]1(O)C(=O)OCc2c1cc1n(c2=O)Cc2cc3c(CN(C)C)c(O)ccc3nc2-1 | < 94.9 nM | < 94.9 nM | < 94.9 nM | < 94.9 nM | < 94.9 nM | 9.62% | 3.33% | 1.25% | 1.06% | 1.09% | 1.14% | 1.15% | 1.2% | 1.07% | 1.19% | 1.2% | 1.12% | 1.07% | 1.03% | 1.31% | viability, T/C (second compound 0.003 µM, first compound 9.49 µM): 0.76%; viability, T/C (second compound 0.003 µM, first compound 30 µM): 0.99%; viability, T/C (second compound 0.00949 µM, first compound 9.49 µM): 1.06%; viability, T/C (second compound 0.00949 µM, first compound 30 µM): 0.96%; viability, T/C (second compound 0.03 µM, first compound 9.49 µM): 0.99%; viability, T/C (second compound 0.03 µM, first compound 30 µM): 0.78%; viability, T/C [24]: 1.37%; viability, T/C (second compound 0.0949 µM, first compound 9.49 µM): 0.98%; viability, T/C (second compound 0.0949 µM, first compound 30 µM): 1.09%; viability, T/C [27]: 1.03%; viability, T/C [28]: 1.25%; viability, T/C [29]: 1%; viability, T/C [30]: 1.05%; viability, T/C (second compound 0.3 µM, first compound 9.49 µM): 1%; viability, T/C (second compound 0.3 µM, first compound 30 µM): 0.91% |
